Data set [1] deals with recombinant human PDE5 (Homo sapiens, UniProt O76074). Put plainly: Inhibitory effect on cGMP-PDE (PDE5 IC50), one-step assay adapted from Wells et al. In kind it is biochemical. To be noted: 0.15 μM 8-[H3]-cGMP, 30 minutes incubation, 2% DMSO. The protocol: The compounds of structural formula (I) were tested for an ability to inhibit PDE5. The ability of a compound to inhibit PDE5 activity is related to the IC50 value for the compound, i.e., the concentration of inhibitor required for 50% inhibition of enzyme activity. The IC50 value for compounds of structural formula (I) were determined using recombinant human PDE5.
(§1) cGMP-PDE activity of compounds of the present invention was measured using a one-step assay adapted from Wells et al., Biochim. Biophys. Acta, 384, 430 (1975). The reaction medium contained 50 mM Tris-HCl, pH 7.5, 5 mM magnesium acetate, 250 μg/ml 5′-Nucleotidase,1 mM ECTA, and 0.15 μM 8-[H^3]-cGMP. Unless otherwise indicated, the enzyme used was a human recombinant PDE5 (ICOS Corp., Bothell, Wash.).
(§2) Compounds of the invention were dissolved in DMSO finally present at 2% in the assay.

For data set [2], the target named is T1, PDE5 (bovine aorta) (Bos taurus, UniProt Q28156).
T1 construct: from tissue; host or cells: bovine aorta
Put plainly: Inhibitory effect on cGMP-PDE (PDE5 IC50), bovine aorta enzyme. In kind it is biochemical. Conditions: enzyme marked (bovine aorta) in the cell. The protocol: as §1, §2

This note sets out measurements from patent publication US6962918B2, “Hexahydropyrazino[1'2';1,6]pyrido[3,4-b]indole-1,4-diones for the treatment of cardiovascular disorders and erectile dysfunction” (Lilly Icos LLC., priority 2000, dated 2005).

Regarding `CC(C)C[C@H]1c2[nH]c3ccccc3c2C[C@H]2C(=O)N(C)CC(=O)N21` (racemic) [Example 19, (+−,cis)-6-Isobutyl-2-methyl-2,3,6,7,12,12a-hexa-hydropyrazino[1′2′:1,6]pyrido[3,4-b]indole-1,4-dione], in data set [1], the IC50 was determined as 4800 nM.
`CN1CC(=O)N2[C@@H](C3CCCCC3)c3[nH]c4ccccc4c3C[C@H]2C1=O` (racemic) [Example 20, (+−, cis)-6-Cyclohexyl-2-methyl-2,3,6,7,12,12a-hexa-hydropyrazino[1′2′:1,6]pyrido[3,4-b]indole,1,4-dione]: the IC50 in data set [2] is 230 nM.
With `CN1CC(=O)N2[C@@H](c3cc4ccccc4o3)c3[nH]c4ccccc4c3C[C@H]2C1=O` [Example 1, (6R,12aS)-6-benzofuran-2-yl-2-methyl-2,3,6,7,12,12a-hexahydro-pyrazino [1′,2′:1,6]pyrido[3,4-b]indole-1,4-dione], the IC50 in data set [1] is 130 nM.
For the compound `CN1CC(=O)N2[C@H](c3cc4ccccc4o3)c3[nH]c4ccccc4c3C[C@H]2C1=O` [Example 2], the melting point was in the range of 195 to 198 °C. In addition, the IC50 in data set [1] is 8730 nM.
On the same counts, the results for `CN1CC(=O)N2[C@H](c3cc4ccccc4o3)c3[nH]c4ccccc4c3C[C@@H]2C1=O` [Example 3, (6S,12aR)-6-benzofuran-2-yl-2-methyl-2,3,6,7,12,12a-hexahydropyrazino[1′,2′:1,6]-pyrido[3,4-b]indole-1,4-dione] are 265 to 268 °C and 16 nM.
Regarding `CN1CC(=O)N2[C@@H](c3cc4ccccc4o3)c3[nH]c4ccccc4c3C[C@@H]2C1=O` [Example 4], the IC50 in data set [1] is 880 nM.
Turning to `Cc1c([C@H]2c3[nH]c4ccccc4c3C[C@H]3C(=O)N(C)CC(=O)N23)sc2ccccc12` [Example 5, (6R,12aS)-2-methyl-6-(e-methyl-benzo[b]thiophen-2-yl)-2,3,6,7,12,12a-hexahydro-pyrazino[1′,2′:1,6]pyrido[3,4-b]indole-1,4-dione], the melting point was in the range of 230 to 234 °C. Further, the IC50 in data set [1] is 25 nM.
On to `Cc1c([C@@H]2c3[nH]c4ccccc4c3C[C@H]3C(=O)N(C)CC(=O)N23)sc2ccccc12` [Example 6], for which the IC50 in data set [1] was found to be 40 nM.
Same read-out and setting: the value for `Cc1c([C@H]2c3[nH]c4ccccc4c3C[C@@H]3C(=O)N(C)CC(=O)N23)sc2ccccc12` [Example 7, (6R,12aR)-2-methyl-6-(3-methylbenzo[b]thiophen-2-yl)-2,3,6,7,12,12a-hexahydropyrazino[1′2′:1,6]-pyrido[3,4-b]indole-1,4-dione] was 1570 nM; that for `Cc1c([C@@H]2c3[nH]c4ccccc4c3C[C@@H]3C(=O)N(C)CC(=O)N23)sc2ccccc12` [Example 8] was 1 nM.
On the same count and under the same terms, the value for `CN1CC(=O)N2[C@H](c3cc4ccoc4s3)c3[nH]c4ccccc4c3C[C@@H]2C1=O` [Example 9] was 12 nM.
As to `COC[C@@H]1c2[nH]c3ccccc3c2C[C@@H]2C(=O)N(C)CC(=O)N21` [Example 15], in data set [1], the IC50 worked out at 333 nM.
With `CN1CC(=O)N2[C@H](Cc3c([nH]c4ccccc34)[C@H]2COCc2ccccc2)C1=O` [Example 16, (6S,12aR)-6-Benzyloxymethyl-2-methyl-2,3,6,7,12,12a-hexahydropyrazino[1′2′:1,6]pyrido-[3,4-b]indole-1,4-dione], the melting point was in the range of 181 to 187 °C. Besides, in data set [1], the IC50 is 1500 nM.
As to `CN1CC(=O)N2[C@H](Cc3c([nH]c4ccccc34)[C@H]2CO)C1=O` [Example 17, (6S,12aR)-6-Hydroxymethyl-2-methyl-2,3,6,7,12,12a-hexahydropyrazino-[1′2′:1,6]pyrido[3,4-b]indole-1,4-dione], in data set [1], the IC50 is 23000 nM.
Compound `COCOC[C@@H]1c2[nH]c3ccccc3c2C[C@@H]2C(=O)N(C)CC(=O)N21` [Example 18, (6S,12aR)-Methoxymethoxymethyl-2-methyl-2,3,6,7,12,12a-hexahydropyrazino-[1′,2′:1,6]pyrido[3,4-b]indole-1,4-dione] had a melting point of 180 to 185 °C. In data set [1], the IC50 came to 195 nM.
In the case of `CN1CC(=O)N2[C@@H](C3CC=CCC3)c3[nH]c4ccccc4c3C[C@H]2C1=O` (stereo partly drawn) [Example 21, (+−, cis)-6-Cyclohex-3-enyl-2-methyl-2,3,6,7,12,12a-hexahydropyrazino[1′2′:1,6]pyrido[3,4-b]indole-1,4-dione], the half-inhibitory concentration (IC50) in data set [1] was 560 nM.
